Article PMC12624573, “The antigen presentation landscape of cytokine-stressed human pancreatic islets” (Cell reports, 2025)
Residues, ends and D or L forms follow the SMILES beside them. No end group written: not given here. *: point of attachment. Carboxymethyl = O=C(O)C*

Tests used:
[1] = system: CD4+ T cells from PBMC; assay: IFN-γ ELISpot, PBMC-derived in vitro expanded CD4+ T cell lines; type: cell-based, human; conditions: for T1D Donor T cell response / non-T1D Donor T cell response: PBMC T cell lines, responding donors/donors tested; for Recognition by IFN-γ-secreting CD4 T cells (ELISpot): expanded PBMCs from a T1D donor, PTM peptides and native parents
[2] = target: HLA-DRB1*03:01 (Homo sapiens, UniProt P01903+P01911, A100K/A102G/A103R/A169T/F55Y/I96L/K41T/L162R/M171V/P40S/Q125H/Q178H/Q39Y/R42S/S66N/T106N/T262R/W38E/Y61H); assay: Fluorescence polarization competition peptide binding assay, HLA-DRB1*03:01
[3] = system: islet-derived T cell lines; assay: Cytokine bead array (IFN-γ, TNF-α, IL-10), combined islet-derived T cell lines from donors with T1D; conditions: for islet derived T cell lines response to DR peptide pools or to single peptides: class II (DR) peptide pools or single peptides, IFNg, TNFa, IL-10 secretion
[4] = PTM and unmodified native Pool Peptides (pool PTM 1), long peptides
[5] = DRB1*03:01+ donor 6579, cytokine bead array (Figures 6I–6K)
[6] = SEC (Secretory) DR3 Peptides Set

Row | Molecule | T1D Donor T cell response [1, 4] | non-T1D Donor T cell response [1, 4] | Recognition by IFN-γ-secreting CD4 T cells (ELISpot) [1] | IC50 [2] [nM] | IFN-γ secretion, islet-derived T cell lines [3, 5] | IL-10 secretion, islet-derived T cell lines [3, 5] | TNF-α secretion, islet-derived T cell lines [3, 5] | islet derived T cell lines response to DR peptide pools or to single peptides ([3]; donor 6550 lines) | islet derived T cell lines response to DR peptide pools or to single peptides ([3]; donor 6579 lines, listed as 148-1) | T1D Donor T cell response [1, 6] | non-T1D Donor T cell response [1, 6] | islet derived T cell lines response to DR peptide pools or to single peptides ([3]; donor 6579 lines) | IL-10 secretion, islet-derived T cell lines ([3]; DRB1*03:01+ donor 6550, cytokine bead array (Figure 6H))
1 | CC(C)C[C@H](NC(=O)[C@H](C)NC(=O)[C@H](CCC(=O)O)NC(=O)[C@@H](NC(=O)[C@H](CC(C)C)NC(=O)[C@H](Cc1c[nH]cn1)NC(=O)[C@H](CO)NC(=O)CN)C(C)C)C(=O)N[C@@H](Cc1ccc(O)cc1)C(=O)N[C@@H](CC(C)C)C(=O)N[C@H](C(=O)N[C@@H](CSCC(=O)O)C(=O)NCC(=O)N[C@@H](CCC(=O)O)C(=O)N[C@@H](CCCNC(=N)N)C(=O)NCC(=O)N[C@@H](Cc1ccccc1)C(=O)O)C(C)C [peptide 146–1, GSHLVEALYLVXGERGF] (H-GSHLVEALYLVC(Carboxymethyl)GERGF-OH; N-terminus and C-terminus assumed) | 1/4 | 0/4 | recognized | 270 to 300 | – | – | – | – | – | – | – | – | –
2 | AVPEEEGPTVVLXPHPSLG [148–1] | 0/4 | 0/4 | – | – | recognized | recognized | recognized | donor 6550 lines negative | donor 6579 lines positive with TNFa and IL-10 secretion | – | – | – | –
3 | GSHLVEALYLVCGERGF [peptide 146] | 1/4 | 0/4 | recognized | 270 to 300 | – | – | – | – | – | – | – | – | –
4 | NYPSLELDKMAHG [peptide 182] | – | – | – | – | – | recognized | – | – | – | 0/4 | 0/4 | donor 6579 lines positive with IL-10 secretion | –
5 | QSIEGGAHEGLQHLGP [peptide 191] | – | – | – | – | – | – | – | donor 6550 lines positive with IL-10 secretion | – | 0/4 | 0/4 | donor 6579 lines negative | recognized
